# Measured values taken from patent publication US7732424B2, “Purine derivatives and methods of use thereof” (Inotek Pharmaceuticals Corporation, priority 2005, dated 2010).
# Like-named read-outs stand apart in the source and are kept apart here.
# Experiments:
# [1] = molecular target: T1, human recombinant A2A adenosine receptor (Homo sapiens, UniProt P29274); assay: Adenosine A2A receptor binding, displacement of [^3H]NECA in transfected CHO cells
# T1 construct: expressed in transfected cells
# Procedure: (§1) Membranes for radioligand binding experiments were prepared from fresh or frozen cells as described in Klotz et al., Naunyn-Schmiedeberg's Arch. Pharmacol., 357:1-9 (1998). The cell suspension was then homogenized in ice-cold hypotonic buffer (5 mM Tris/HCl, 2 mM EDTA, pH 7.4) and the resultant homogenate was spun for 10 minutes (4° C.) at 1,000 g. The membranes were then sedimented from the supernatant for 30 minutes at 100,000 g and resuspended in 50 mM Tris/HCl buffer pH 7.4 (for A3 adenosine receptors: 50 mM Tris/HCl, 10 mM MgCl2, 1 mM EDTA, pH 8.25), frozen in liquid nitrogen at a protein concentration of 1-3 mg/mL and stored at −80° C.
# (§2) Nonspecific binding was determined in the presence of 100 μM R-PIA and 1 mM theophylline, respectively. For details see Klotz et al., Naunyn-Schmiedeberg's Arch. Pharmacol., 357:1-9, 1998. All binding data were calculated by non-linear curve fitting using the program SCTFIT (De Lean et al., Mol. Pharm. 1982, 21:5-16).
# [2] = molecular target: human recombinant A1 adenosine receptor (Homo sapiens, UniProt P30542); assay: Adenosine A1 receptor binding, displacement of [^3H]CCPA in transfected CHO cells
# Procedure: as §1, §2
# [3] = molecular target: T2, human recombinant A3 adenosine receptor (Homo sapiens, UniProt P0DMS8); assay: Adenosine A3 receptor binding, displacement of [^3H]NECA in transfected HEK cells; conditions: displacement of specific [^3H]NECA binding, geometric mean
# T2 construct: expressed in transfected cells
# T2 sequence (P0DMS8 1-318): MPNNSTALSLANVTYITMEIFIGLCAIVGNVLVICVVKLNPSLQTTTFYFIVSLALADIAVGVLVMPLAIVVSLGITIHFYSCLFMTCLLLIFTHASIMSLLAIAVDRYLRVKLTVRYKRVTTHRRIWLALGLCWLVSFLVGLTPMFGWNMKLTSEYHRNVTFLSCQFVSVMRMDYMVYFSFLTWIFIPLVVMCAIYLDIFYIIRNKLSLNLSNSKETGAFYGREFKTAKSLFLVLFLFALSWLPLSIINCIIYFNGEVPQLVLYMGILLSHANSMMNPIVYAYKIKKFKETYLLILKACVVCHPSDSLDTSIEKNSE
# Procedure: as §1, §2
# male Sprague-Dawley rats = assay: Effect on core body temperature in rats; format: in vivo; parameters: Rectal Temperature: unit not given here; conditions: for Behavior / Rectal Temperature / Respiratory Rate / Respiration Rate: rat at 13° C., 15 mg/kg JV then 20 mg/mL at 1 mL/h
# Procedure: Their rectal temperature, respiratory rate, and behavior were recorded following 5 min, 10 min, 20 min, 30 min, 1 h, 1.5 h, 2 h, 2.5 h, 3 h, 3.5 h, and 4 h.
# [4] = tested on: New Zealand white rabbits; assay: Effect on intraocular pressure (IOP) in rabbits; format: in vivo, rabbit
# Procedure: The effect of an illustrative Purine Derivative on intraocular pressure (IOP) was examined in New Zealand white rabbits. New Zealand white rabbits undergo a circadian change in intraocular pressure, such that lowest pressure values occur in the early morning and peak pressure values occur in the afternoon. […] Consistency of measurements is indicated by the fact the intraocular pressure at t=−23 hours and t=25 hours is essentially the same (see FIGS. 1-5).
# One rabbit was administered with each each dose level. […] Thus, Compound I′-1 was administered when the level of intraocular pressure was low relative to other timepoints during the day and night.
# T1 sequence (P29274 whole entry): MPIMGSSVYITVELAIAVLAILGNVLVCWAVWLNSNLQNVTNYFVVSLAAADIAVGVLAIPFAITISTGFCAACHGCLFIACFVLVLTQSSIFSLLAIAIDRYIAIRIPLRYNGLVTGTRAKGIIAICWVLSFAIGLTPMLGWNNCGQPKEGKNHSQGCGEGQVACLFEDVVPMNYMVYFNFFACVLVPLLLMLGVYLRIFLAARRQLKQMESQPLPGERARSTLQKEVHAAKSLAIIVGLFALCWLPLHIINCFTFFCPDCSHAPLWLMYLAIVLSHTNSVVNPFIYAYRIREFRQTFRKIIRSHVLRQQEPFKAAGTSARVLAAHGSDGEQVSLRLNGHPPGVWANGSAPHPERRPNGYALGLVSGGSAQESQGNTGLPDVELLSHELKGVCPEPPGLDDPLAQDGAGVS
# human recombinant A1 adenosine receptor, sequence (P30542 whole entry): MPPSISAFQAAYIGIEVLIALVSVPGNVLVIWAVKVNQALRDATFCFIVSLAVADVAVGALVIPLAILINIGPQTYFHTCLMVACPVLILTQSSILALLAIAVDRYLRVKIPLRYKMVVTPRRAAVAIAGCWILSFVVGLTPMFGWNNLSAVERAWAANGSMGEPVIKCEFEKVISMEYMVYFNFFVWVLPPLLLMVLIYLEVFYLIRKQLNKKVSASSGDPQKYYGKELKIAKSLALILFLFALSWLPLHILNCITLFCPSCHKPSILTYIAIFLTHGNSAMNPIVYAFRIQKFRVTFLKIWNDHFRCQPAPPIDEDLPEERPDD
compound,measurement,setting,value
"OC[C@H]1O[C@@H](n2cnc3c(NC4CCCC4)nc(Cl)nc32)[C@H](O)[C@@H]1O [[^3H]CCPA, 2-chloro-N^6-[^3H]cyclopentyladenosine, reference compound]",Ki,"[1]; displacement of specific [^3H]NECA binding, CHO cells, geometric mean, read-out: Ki(A2A)",2.27 µM
OC[C@H]1O[C@@H](n2cnc3c(NC4(CO)CCCC4)ncnc32)[C@H](O)[C@@H]1O [I′-1],Ki,[2],0.00677 µM
same,Ki,[1],28.1 µM
same,Ki,[3],7.7 µM
same,Behavior,"male Sprague-Dawley rats; Animal #1, 0 min",normal
same,Rectal Temperature,"male Sprague-Dawley rats; Animal #1, 0 min",38
same,Respiratory Rate,"male Sprague-Dawley rats; Animal #1, 0 min",210 min⁻¹
same,Behavior,"male Sprague-Dawley rats; Animal #1, 5 min",sleep/
same,Rectal Temperature,"male Sprague-Dawley rats; Animal #1, 5 min",38
same,Behavior,"male Sprague-Dawley rats; Animal #1, 10 min",sleep/
same,Rectal Temperature,"male Sprague-Dawley rats; Animal #1, 10 min",37
same,Respiratory Rate,"male Sprague-Dawley rats; Animal #1, 10 min",69 min⁻¹
same,Behavior,"male Sprague-Dawley rats; Animal #1, 20 min",sleep
same,Rectal Temperature,"male Sprague-Dawley rats; Animal #1, 20 min",36
same,Respiratory Rate,"male Sprague-Dawley rats; Animal #1, 20 min",66 min⁻¹
same,Behavior,"male Sprague-Dawley rats; Animal #1, 30 min",sleep
same,Rectal Temperature,"male Sprague-Dawley rats; Animal #1, 30 min",36
same,Respiratory Rate,"male Sprague-Dawley rats; Animal #1, 30 min",75 min⁻¹
same,Behavior,"male Sprague-Dawley rats; Animal #1, 1 h",sleep
same,Rectal Temperature,"male Sprague-Dawley rats; Animal #1, 1 h",32
same,Respiration Rate,"male Sprague-Dawley rats; Animal #1, 1 h",42 min⁻¹
same,Behavior,"male Sprague-Dawley rats; Animal #1, 1.5 h",sleep
same,Rectal Temperature,"male Sprague-Dawley rats; Animal #1, 1.5 h",29
same,Respiration Rate,"male Sprague-Dawley rats; Animal #1, 1.5 h",45 min⁻¹
same,Behavior,"male Sprague-Dawley rats; Animal #1, 2 h",sleep
same,Rectal Temperature,"male Sprague-Dawley rats; Animal #1, 2 h",27
same,Respiration Rate,"male Sprague-Dawley rats; Animal #1, 2 h",54 min⁻¹
same,Behavior,"male Sprague-Dawley rats; Animal #1, 2.5 h",sleep
same,Rectal Temperature,"male Sprague-Dawley rats; Animal #1, 2.5 h",25
same,Respiration Rate,"male Sprague-Dawley rats; Animal #1, 2.5 h",51 min⁻¹
same,Behavior,"male Sprague-Dawley rats; Animal #1, 3 h",sleep
same,Rectal Temperature,"male Sprague-Dawley rats; Animal #1, 3 h",24
same,Respiration Rate,"male Sprague-Dawley rats; Animal #1, 3 h",42 min⁻¹
same,Behavior,"male Sprague-Dawley rats; Animal #1, 3.5 h",sleep
same,Rectal Temperature,"male Sprague-Dawley rats; Animal #1, 3.5 h",23
same,Respiration Rate,"male Sprague-Dawley rats; Animal #1, 3.5 h",42 min⁻¹
same,Behavior,"male Sprague-Dawley rats; Animal #1, 4 h",sleep
same,Rectal Temperature,"male Sprague-Dawley rats; Animal #1, 4 h",21
same,Respiration Rate,"male Sprague-Dawley rats; Animal #1, 4 h",42 min⁻¹
same,Behavior,"male Sprague-Dawley rats; Animal #2, 0 min",normal
same,Rectal Temperature,"male Sprague-Dawley rats; Animal #2, 0 min",39
same,Respiratory Rate,"male Sprague-Dawley rats; Animal #2, 0 min",220 min⁻¹
same,Behavior,"male Sprague-Dawley rats; Animal #2, 5 min",normal
same,Rectal Temperature,"male Sprague-Dawley rats; Animal #2, 5 min",39
same,Respiratory Rate,"male Sprague-Dawley rats; Animal #2, 5 min",99 min⁻¹
same,Behavior,"male Sprague-Dawley rats; Animal #2, 10 min",sleep/
same,Rectal Temperature,"male Sprague-Dawley rats; Animal #2, 10 min",38
same,Respiratory Rate,"male Sprague-Dawley rats; Animal #2, 10 min",84 min⁻¹
same,Behavior,"male Sprague-Dawley rats; Animal #2, 20 min",sleep/
same,Rectal Temperature,"male Sprague-Dawley rats; Animal #2, 20 min",37
same,Respiratory Rate,"male Sprague-Dawley rats; Animal #2, 20 min",57 min⁻¹
same,Behavior,"male Sprague-Dawley rats; Animal #2, 30 min",sleep/
same,Rectal Temperature,"male Sprague-Dawley rats; Animal #2, 30 min",37
same,Respiratory Rate,"male Sprague-Dawley rats; Animal #2, 30 min",51 min⁻¹
same,Behavior,"male Sprague-Dawley rats; Animal #2, 1 h",sleep
same,Rectal Temperature,"male Sprague-Dawley rats; Animal #2, 1 h",33
same,Respiration Rate,"male Sprague-Dawley rats; Animal #2, 1 h",36 min⁻¹
same,Behavior,"male Sprague-Dawley rats; Animal #2, 1.5 h",sleep
same,Rectal Temperature,"male Sprague-Dawley rats; Animal #2, 1.5 h",30
same,Respiration Rate,"male Sprague-Dawley rats; Animal #2, 1.5 h",36 min⁻¹
same,Behavior,"male Sprague-Dawley rats; Animal #2, 2 h",sleep
same,Rectal Temperature,"male Sprague-Dawley rats; Animal #2, 2 h",28
same,Respiration Rate,"male Sprague-Dawley rats; Animal #2, 2 h",36 min⁻¹
same,Behavior,"male Sprague-Dawley rats; Animal #2, 2.5 h",sleep
same,Rectal Temperature,"male Sprague-Dawley rats; Animal #2, 2.5 h",27
same,Respiration Rate,"male Sprague-Dawley rats; Animal #2, 2.5 h",30 min⁻¹
same,Behavior,"male Sprague-Dawley rats; Animal #2, 3 h",sleep
same,Rectal Temperature,"male Sprague-Dawley rats; Animal #2, 3 h",26
same,Respiration Rate,"male Sprague-Dawley rats; Animal #2, 3 h",27 min⁻¹
same,Behavior,"male Sprague-Dawley rats; Animal #2, 3.5 h",sleep
same,Rectal Temperature,"male Sprague-Dawley rats; Animal #2, 3.5 h",25
same,Respiration Rate,"male Sprague-Dawley rats; Animal #2, 3.5 h",24 min⁻¹
same,Behavior,"male Sprague-Dawley rats; Animal #2, 4 h",sleep
same,Rectal Temperature,"male Sprague-Dawley rats; Animal #2, 4 h",25
same,Respiration Rate,"male Sprague-Dawley rats; Animal #2, 4 h",27 min⁻¹
same,Effect on core body temperature (conclusion),"male Sprague-Dawley rats; rats, Tables 3A and 3B",reduces an animal's core body temperature
same,Survival of the animals,"male Sprague-Dawley rats; two rats, 15 mg/kg JV then 20 mg/mL at 1 mL/h for 4 hours",Both animals survived the experiment
same,Effect on intraocular pressure (conclusion),[4]; FIGS. 1-5,reduces an animal's intraocular pressure
same,Time of recovery of intraocular pressure values to normal levels,[4]; administered concentration 0.3 mg/mL (FIG. 1),~6 h
same,Time of recovery of intraocular pressure values to normal levels,[4]; administered concentration 30 mg/mL (FIG. 5),> 7 h
same,Intraocular pressure course after administration,"[4]; one drop to one eye at t=0 hours, FIGS. 1-5",the intraocular pressure did not increase to the normal day values
same,Eye irritation,"[4]; topical ocular, 0.3-30.0 mg/mL",No eye irritation was observed in any animal
OC[C@H]1O[C@@H](n2cnc3c(NC4(CO)CCCC4)nc(Cl)nc32)[C@H](O)[C@@H]1O [I′-19],Ki,[2],0.00647 µM
same,Ki,[1],24 µM
same,Ki,[3],5.96 µM
